Experimental data as given in patent US20120302546A1, “NOVEL SULFAMIDES EXHIBITING NEUROPROTECTIVE ACTION AND METHODS FOR USE THEREOF” (FOX CHASE CHEMICAL DIVERSITY CENTER, INC., priority 2010, published 2012).

Key:
[1] = system: Hippocampal Cultures; assay: Neuroprotection from glutamate excitotoxicity, CFDA neuronal viability assay; assay type: cell-based, rat; settings: day 20 hippocampal cultures, 5 min 30 μM glutamate, CFDA assay 24 hours after initiation of treatment (FIG. 1-3)
Description: Pharmacology: Hydroxyethyl sulfamides attenuate glutamate-mediated neuronal viability. As an example, compound II, shown above, is shown to attenuate a decrease in carboxyfluorescein diacetate (CFDA) produced by acute treatment with glutamate in FIG. 1. For these studies, day 20 hippocampal cultures derived from E18 rats were treated for 5 min with 30 μM glutamate. Following removal of the glutamate, cultures were treated with various concentrations of compound II and the CFDA neuronal viability assay was conducted 24 hours after the initiation of treatment. The dotted line labeled “control” represents the mean CFDA value for control culture receiving no treatment. The dotted line labeled “carisbamate” represents the mean CFDA value for the reference compound carisbamate, a putative neuroprotective, anticonvulsant. For the CFDA measurements, RFU is the abbreviation for relative fluorescent units. The reference anticonvulsant compound carisbamate was tested at 100 μM, as lower concentrations were ineffective.
Cell cultures: All compounds are screened with dissociated hippocampal cultures derived from embryonic day 18 rats as the primary test system. With this preparation, primary neurons are used to test for toxicity as well as neuroprotection in a highly relevant experimental system to epilepsy. In brief, hippocampal tissue are obtained commercially through Brain Bits (Springfield, Ill.) and cultures prepared as previously described by Brewer (Brewer, G. J. Serum-free B27/neurobasal medium supports differentiated growth of neurons from the striatum, substantia nigra, septum, cerebral cortex, cerebellum and dentate gyms, J. Neurosci. Res. 1995, 42, 674-683.). The hippocampal neurons are platted at low density (10,000 cell/well) in a 96-well format and maintained in serum-free medium consisting of Neurobasal Medium supplemented with B27 and GlutaMAX (Gibco). Pre-coated poly-L-lysine coated plates are used because of the preferential adherence and survival of hippocampal neurons on this matrix support.
Carboxyfluorescein (CFDA) was used a vital stain for all cell toxicity and neuroprotection studies. With the use of the CytoFluor fluorimeter, the CFDA assay was employed to assess the viability of neurons. CFDA is a dye that becomes fluorescent upon cell entry and cleavage by cytosolic esterases (Petroski, R. E.; Geller, H. M Selective labeling of embryonic neurons cultures on astrocyte monolayers with 5(6)-carboxyfluorescein diacetate (CFDA). J. Neurosci. Methods 1994, 52, 23-32.). Neuronal specificity is obtained relative to astrocytes because the cleaved dye is extruded extracellularly by glia with time, while dye in neurons remains intracellular. […] To further assess the culture responses, a propidium iodide method was used as previously described (Sarafian, T. A.; Kouyoumjian, S.; Tashkin, D.; Roth, M. D. Synergistic cytotoxicity of 9-tetrahydrocannabianol and butylated hydroxyanisole, Tox. Letters, 2002. 133, 171-179.) to measure the number of dead cells. Propidium iodide becomes fluorescent when binding to the DNA of dead cells. Cultures were treated on day 2 with the test agent and then the two assays were conducted after a […] test period. For all assays, a 96-well format was used. For the screen, log concentration-effect studies were conducted from 10 nM to 1 mM with 8 replications. The duration of the test period was five days. Cultures were given a complete change of medium prior to the initiation of the treatment period.
Potent neuroprotection is the distinguishing characteristic that separates this program's anticonvulsants from all other commercial drugs for epilepsy. The experimental details and the rationale for the implemented assays are essential in differentiating these compounds from that of others. The central objective of all neuroprotective assays was their relevancy to excitotoxicity and oxidative stress related to epilepsy. […]

[2] = system: Hippocampal Cultures; assay: Neuroprotection from glutamate excitotoxicity, propidium iodide cell death assay; assay type: cell-based, rat; settings: Day 15 Hippocampal Cultures, 30 μM glutamate (FIG. 5)
[3] = system: 6 Hz corneal stimulation evoked seizures; assay: 6 Hz psychomotor seizure test in mice; assay type: in vivo; settings: Mouse 6 Hz, 100 mg/kg, intraperitoneal, vehicle methylcellulose
Description: Methods to measure anticonvulsant activity: All tests were conducted by the Anticonvulsant Screening Program (ASP) of the National Institute of Neurological Disease and Stroke at the National Institutes of Health. The 6 Hz Seizure Test: Compounds were further tested in the 6-Hz psychomotor seizure model (Barton et al., 2001). This model is used to detect seizures that may be useful for the treatment of therapy-resistant partial seizures. For this test, an alternative electrical stimulation paradigm is used with a low frequency (6 Hz), long duration (3 seconds) corneal stimulation. The seizure evoked by this low frequency stimulation is characterized by immobility, forelimb clonus, Straub tail and facial automatisms (Barton et al., 2001). Mice are tested from 15 min to 4 hours following an intraperitoneal dose of 100 mg/kg. Abolition of the clonic seizures indicates the ability of a compound to prevent partial or psychomotor seizures.

[4] = system: MES-induced seizure spread; assay: Maximal Electroshock Seizure (MES) test in mice; assay type: in vivo; settings: Mouse MES, intraperitoneal, vehicle methylcellulose
Description: (§1) Methods to measure anticonvulsant activity: All tests were conducted by the Anticonvulsant Screening Program (ASP) of the National Institute of Neurological Disease and Stroke at the National Institutes of Health. The Maximal Electroshock Seizure (MES) or Maximal Seizure Pattern Test: The MES is a model for generalized tonic-clonic seizures (Putnam and Merritt, 1937). It is highly reproducible with consistent endpoints. The behavioral and electrographic seizures generated in this model are consistent with the human disorder. This model identifies those compounds which prevent seizure spread. In the MES test, an electrical stimulus of 0.2 s in duration (50 mA in mice and 150 mA in rat at 60 Hz) is delivered via corneal electrodes primed with an electrolyte solution containing an anesthetic agent. Mice are tested at 30 minutes and 4 hours following doses of 30, 100 and 300 mg/kg of test compound. Test compounds are administered intraperitoneally to the mice. Rats are tested at time intervals between 0.25 and 4 hours following a standard oral dose of 30 mg/kg. Abolition of the hindlimb tonic extensor component indicates the test compound's ability to inhibit MES-induced seizure spread.

[5] = system: MES-induced seizure spread; assay: Maximal Electroshock Seizure (MES) test in rats; assay type: in vivo; settings: Rat MES, 30 mg/kg, oral, vehicle methylcellulose
Description: as §1

Compound: NS(=O)(=O)NC[C@@H](O)c1ccccc1Cl [compound III]
- effect on glutamate-mediated decrease in neuronal viability (CFDA) [1]: efficacious
- effect on glutamate-mediated increase in cell death (propidium iodide) [2]: efficacious

Compound: NS(=O)(=O)NC[C@@H](O)c1ccccc1Cl [drawing 54]
- # animals active/# animals tested ([3]; 0.25 hr): 0/4
- # animals active/# animals tested ([3]; 0.5 hr): 1/4
- # animals active/# animals tested ([3]; 1.0 hr): 1/4
- # animals active/# animals tested ([3]; 2.0 hr): 0/4
- # animals active/# animals tested ([4]; 30 mg/kg, 0.5 hr): 0/1
- # animals active/# animals tested ([4]; 100 mg/kg, 0.5 hr): 2/3
- # animals active/# animals tested ([4]; 300 mg/kg, 0.5 hr): 1/1
- # animals active/# animals tested ([5]; 0.25 hr): 1/4
- # animals active/# animals tested ([5]; 0.5 hr): 0/4

Compound: NS(=O)(=O)NCC(O)c1ccccc1F (stereo not shown) [drawing 55]
- # animals active/# animals tested ([3]; 0.25 hr): 0/4
- # animals active/# animals tested ([3]; 0.5 hr): 1/4
- # animals active/# animals tested ([3]; 1.0 hr): 1/4
- # animals active/# animals tested ([3]; 2.0 hr): 1/4
- # animals active/# animals tested ([3]; 4.0 hr): 1/4
- # animals active/# animals tested ([4]; 30 mg/kg, 4 hr): 0/1
- # animals active/# animals tested ([4]; 100 mg/kg, 4 hr): 1/3
- # animals active/# animals tested ([4]; 300 mg/kg, 4 hr): 1/1
- # animals active/# animals tested ([5]; 1 hr): 0/4
- # animals active/# animals tested ([5]; 2 hr): 1/4
- # animals active/# animals tested ([5]; 4 hr): 2/4
